Assay results reported in US9512178B2, “Neurogenic brain-derived neurotrophic factor peptides” (Research Foundation for Mental Hygiene, Inc., priority 2012, dated 2016).

Columns and labels:
TrkB receptor [1] = target: T1, TrkB receptor (Homo sapiens, UniProt Q16620); assay: TrkB expression in TrkB stably-expressing NIH-3T3 fibroblasts, time course; assay type: cell-based; conditions: 1 μM, 60 min
T1 construct: host or cells: NIH 3T3 fibroblasts, G418 selection
Protocol: (§1) To study the activation of the TrkB receptor with BDNF and/or with the peptides, NIH 3T3 cells were used, stably transfected with the TrkB receptor (obtained from Montreal Neurological Institute, Montreal, Quábec, Canada). The cell culture medium used for this cell line was: DMEM-high glucose, 10 percent normal calf serum, 1 percent glutamax, 1 percent sodium pyruvate, 1 percent penicillin-streptomycin; supplemented with the selection antibiotic G418 in a final concentration of 100 μg/ml (to guaranty the stable expression of the Trkb transgene). All Medium components were purchase from Gibco Life Technologies, Invitrogen, Grand Island, N.Y., USA.
The NIH 3T3 fibroblasts stably expressing the TrkB receptor were vehicle-treated or treated with BDNF peptides B-5 and B-3 at a concentration of 1 μM or with BDNF at a concentration of 20 ng/ml (0.79 nM) for 5, 15 or 60 min (FIG. 5E, F). […] The effect was time-dependent and was pronounced at 60 min treatment. […] The effect on the increase in expression of TrkB by Peptides B-5 and B-3 could be the way in which the peptides potentiate the BDNF pathway to avoid saturation of the receptors, and/or promote their neurotrophic effect by increasing the expressions of both BDNF (FIGS. 5A and 5B) and TrkB (FIGS. 5C through 5F).

TrkB receptor [2] = target: T1, TrkB receptor; assay: Competition with BDNF for activation (pTrkB) of TrkB in NIH 3T3 cells stably expressing TrkB; assay type: cell-based; conditions: 0.05 μM to 10 μM with BDNF 1 ng/ml (0.04 nM), 15 min; dose-dependent
Protocol: as §1
To evaluate a possible competitive role of the peptides in the activation of TrkB receptor by BDNF, a fibroblast (NIH 3T3) cell line stably expressing the TrkB receptor was used. Cells were vehicle-treated or treated with BDNF 1 ng/ml (0.04 nM) in the presence or absence of 0.05 μM to 10 μM B-5 or B-3 for 15 min (FIG. 7A). […] As observed in primary neuronal cultures (shown in FIGS. 5C and D), the treatment with the peptides alone for 15 min induced a weak but significant activation of TrkB receptor when compared to control (ANOVA, p<0.001).

[3] = tested on: E18 primary hippocampal neurons; assay: Western blots of neuronal markers, densitometry; assay type: cell-based, mouse; conditions: 5 days
Protocol: (§2) Following treatment in 6-well plates, cells were washed 2× in glucose buffered saline, GBS (5.4 mM KCl, 138 mM NaCl, 22 mM glucose, and 2 mM Na—KPO pH 7.2), and then lysed by 5 min incubation on ice in 100 or 150 μl of ice-cold RIPA buffer (PBS, 1% w/v NP-40 from Fisher Scientific, 0.1% w/v SDS, and 0.5% w/v sodium desoxycholate) containing 1 mM AEBSF (Gold Biotechnology, St. Louis, Mo., USA), 10 μg/ml aprotinin (Sigma-Aldrich, St. Louis, Mo., USA), and 20 μg/ml of leupeptin and pepstatin (US Biochemicals, Cleveland, Ohio, USA), and phosphatase inhibitors: NaF, Na orthovanadate, (3-glycerophosphate, and microcystein (Sigma-Aldrich, St. Louis, Mo., USA). Extracts were prepared by collecting and pooling a minimum of 2 wells by scraping, and lysates were centrifuged at 20,000×g for 10 min at 4° C. Protein concentration of each cell lysate was determined using the BCA kit (Thermo Scientific, Rockford, Ill., USA). The lysates (7.5-20 μg total protein) were separated on 10% SDS-PAGE gels (except for BDNF where 12% gels were employed) and transferred to 0.45 μm PVDF membrane (Pall, Pensacola, Fla., USA) for probing with antibodies as noted. Blots were blocked for 1 hr at 37° C. in 1×TBST (0.05% Tween 20 in TBS) containing 5% w/v blotting grade dry milk (Bio-rad, Hercules, Calif., USA), incubated in primary antibody overnight in blocking buffer at 4° C., washed 3×10 min in TBST at room temperature, followed by incubation with secondary antibody, i.e., peroxidase-conjugated anti-mouse or anti rabbit IgG (Jackson ImmunoResearch Laboratories, West Grove, Pa., USA) diluted in blocking buffer. Blots were washed 3×10 min in TBST and immunoreactive protein bands were visualized with enhanced chemiluminescence (ECL) reagents (Pierce, Rockford, Ill., USA). The ECL films of the blots were scanned and analyzed using Multi Gauge software version 3.0 (Fujifilm, Tokyo, Japan).
(§3) The following primary antibodies were used: rabbit polyclonal anti-NFM (1:1000; Chemicon/Millipore, Billerica, Mass., USA); mouse monoclonal anti-NeuN, clone A60 (1:500; Millipore, Billerica, Mass., USA); rabbit polyclonal anti-Tuj-1, (3—III-tubulin (Covance; 1:800, Emeryville, Calif., USA); mouse monoclonal SMI 52 to the adult isoforms of MAP-2, MAP2a,b (1:1000; Covance, Emeryvilly, Calif., USA); rabbit polyclonal anti-Synapsin I (1:2000; Stressgen, Farmingdale, N.Y., USA); rabbit monoclonal anti-PSD95 (1:1000; Cell signaling, Danvers, Mass., USA); anti tau 92e (1:10000); mouse monoclonal anti-BDNF (1:1000; Calbiochem, Gibbstown, N.J., USA); rabbit polyclonal anti-TrkB (total) (1:500; Santa Cruz Biotechnology, Santa Cruz, Calif., USA); rabbit polyclonal anti-pTrkB (Tyr706) (1:400; Santa Cruz Biotechnology, Santa Cruz, Calif., USA), TrkC (1:1000; Cruz Biotechnology, Santa Cruz, Calif., USA); and pTrkY490 (1:500; Upstate USA Inc., Charlottesville, Va., USA). For loading control, the blots were developed with rabbit polyclonal antibody to GAPDH (1:2000; Santa Cruz Biotechnology, Santa Cruz, Calif., USA).
To biochemically study the effect of BDNF peptides in inducing expression of neuronal markers, protein samples were recovered from cells treated with peptides B-5, B-4, B-3, or vehicle for five days. As a positive control, protein samples were collected from cells treated with BDNF at 20 ng/ml (0.79 nM) or 100 ng/ml (3.95 nM) (FIG. 3D, E). Western blots of the cell lysates were developed with antibodies to Synapsin I (presynaptic marker), PSD95 (postsynaptic marker), NeuN (late neuronal marker), NFM (early neuronal marker), MAP2 (dendritic marker), 0-IIItubulin (early neuronal marker), and tau 92e (axonal marker).

BDNF = BDNF expression, Western blot, 5 days treatment; assay type: cell-based, mouse
Protocol: as §2, §3
To investigate the molecular mechanism by which the BDNF peptides promoted neurogenic/neurotrophic activities, the hippocampal primary cultured neurons were treated with the peptides or BDNF for five days and compared with the control medium treated cells.

T1 sequence (Q16620 32-822): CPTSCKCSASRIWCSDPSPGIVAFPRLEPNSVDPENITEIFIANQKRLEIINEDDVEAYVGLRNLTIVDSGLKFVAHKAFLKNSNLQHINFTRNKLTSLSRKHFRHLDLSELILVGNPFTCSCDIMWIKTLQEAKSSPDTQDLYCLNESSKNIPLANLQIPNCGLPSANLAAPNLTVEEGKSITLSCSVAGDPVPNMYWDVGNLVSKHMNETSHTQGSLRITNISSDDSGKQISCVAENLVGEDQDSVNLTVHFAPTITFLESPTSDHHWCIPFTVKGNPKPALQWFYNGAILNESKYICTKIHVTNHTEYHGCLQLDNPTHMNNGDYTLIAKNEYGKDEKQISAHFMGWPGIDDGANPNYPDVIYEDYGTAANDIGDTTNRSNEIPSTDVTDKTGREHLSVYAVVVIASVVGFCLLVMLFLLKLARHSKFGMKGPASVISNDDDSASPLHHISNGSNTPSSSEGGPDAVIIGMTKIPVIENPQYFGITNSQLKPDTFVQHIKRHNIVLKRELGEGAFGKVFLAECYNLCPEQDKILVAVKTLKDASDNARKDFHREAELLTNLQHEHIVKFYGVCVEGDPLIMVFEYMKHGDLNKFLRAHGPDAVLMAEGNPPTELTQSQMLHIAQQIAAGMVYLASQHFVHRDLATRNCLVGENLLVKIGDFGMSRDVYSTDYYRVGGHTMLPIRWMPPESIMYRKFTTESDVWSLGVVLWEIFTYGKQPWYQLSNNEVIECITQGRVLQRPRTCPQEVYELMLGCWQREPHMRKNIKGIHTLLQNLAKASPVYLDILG

| Substance | expression of the receptor TrkB (TrkB receptor [1]) | competitive inhibition of the activation of TrkB receptor by BDNF (TrkB receptor [2]) | MAP2 expression (Western blot) ([3]; 0.1 μM) | NFM expression (Western blot) ([3]; 0.1 μM) | expression of NeuN (Western blot) ([3]; 1 μM) | expression of PSD95 (Western blot) ([3]; 1 μM) | levels of 0-IIItubulin (Western blot) ([3]; 1 μM, vs vehicle) | level of tau (92e antibody, Western blot) [3] | expression of BDNF (Western blot) (BDNF; 0.1 μM) | expression of BDNF (Western blot) (BDNF; 1 μM) | expression of BDNF (Western blot) (BDNF; vs control medium) | expression of NeuN (Western blot) ([3]; 0.1 μM) |
| --- | --- | --- | --- | --- | --- | --- | --- | --- | --- | --- | --- | --- |
| Ac-I-K-R-G-CONH2 [Peptide B-5] | marked increase | significant competitive inhibition | increased significantly | increased NFM expression | increased the expression of NeuN | significant increment | this increase was not significant | Neither BNDF nor peptides B-3, B-4 or B-5 had any significant effect | strongest induction | lost | induced the expression of BDNF | – |
| Ac-S-KKR-CONH2 [Peptide B-3] | marked increase | significant competitive inhibition | – | – | increased the expression of NeuN | – | – | Neither BNDF nor peptides B-3, B-4 or B-5 had any significant effect | not at 0.1 μM | induced an increase | induced the expression of BDNF | increased the expression of NeuN |
